Assay results taken from ChEMBL document CHEMBL1649150, “P-glycoprotein-mediated transport of moxifloxacin in a Calu-3 lung epithelial cell model” (Antimicrob Agents Chemother, 2009).

What was measured:
P-glycoprotein [1] = experiment: (§1) P-glycoprotein-mediated transport in human Calu3 cells expressing P-glycoprotein assessed as maximum apparent permeability from basolateral to apical side at 50 uM; type: ADME, cell-based, Calu-3
[2] = as §1; type: ADME, cell-based, Calu-3; conditions: calu-3, 50 µM, TDE = time-dependent effect
P-glycoprotein [3] = experiment: P-glycoprotein-mediated transport in human Calu3 cells expressing P-glycoprotein assessed as maximum apparent permeability from apical to basolateral side at 50 uM in presence of in presence of 10 uM of p-glycoprotein and MRP transport inducer rifampin; type: ADME, cell-based, Calu-3
P-glycoprotein [4] = experiment: P-glycoprotein-mediated transport in human Calu3 cells expressing P-glycoprotein assessed as maximum apparent permeability from basolateral to apical side at 50 uM in presence of in presence of 25 uM of p-glycoprotein and MRP transport inducer rifampin; type: ADME, cell-based, Calu-3
P-glycoprotein [5] = experiment: (§2) P-glycoprotein-mediated transport in human Calu3 cells expressing P-glycoprotein assessed as maximum apparent permeability from apical to basolateral side at 50 uM; type: ADME, cell-based, Calu-3
[6] = as §2; type: ADME, cell-based, Calu-3; conditions: calu-3, 50 µM, TDE = time-dependent effect
[7] = Apparent passive permeability across human Calu3 cells at 350 ug/ml; type: ADME, cell-based, Calu-3
P-glycoprotein [8] = experiment: P-glycoprotein-mediated transport in human Calu3 cells expressing P-glycoprotein assessed as minimum apparent permeability from basolateral to apical side; type: ADME, cell-based, Calu-3
P-glycoprotein [9] = experiment: P-glycoprotein-mediated transport in human Calu3 cells expressing P-glycoprotein assessed as maximum apparent permeability from basolateral to apical side; type: ADME, cell-based, Calu-3
P-glycoprotein [10] = experiment: Activity at P-glycoprotein in human Calu3 cells; type: ADME, cell-based, Calu-3
P-glycoprotein [11] = experiment: P-glycoprotein-mediated transport in human Calu3 cells expressing P-glycoprotein assessed as maximum apparent permeability from basolateral to apical side at 50 uM in presence of in presence of 10 uM of p-glycoprotein and MRP transport inducer rifampin; type: ADME, cell-based, Calu-3
[12] = Cmax in healthy human at 400 […]; type: ADME, organism-based; conditions: in vivo
[13] = P-glycoprotein-mediated transport in human Calu3 cells assessed as efflux ratio of permeability from […] side at 50 uM; type: ADME, cell-based; conditions: calu-3, 50 µM
[14] = Apparent passive permeability across human Calu3 cells at < 10 ug/ml; type: ADME, cell-based, Calu-3
P-glycoprotein [15] = experiment: P-glycoprotein-mediated transport in human Calu3 cells expressing P-glycoprotein assessed as maximum apparent permeability from apical to basolateral side at 50 uM in presence of in presence of 25 uM of p-glycoprotein and MRP transport inducer rifampin; type: ADME, cell-based, Calu-3

Q: Which Papp B→A at 50 µM (P-glycoprotein [1]) does the source give for `COc1c(N2C[C@@H]3CCCN[C@@H]3C2)c(F)cc2c(=O)c(C(=O)O)cn(C3CC3)c12` [MOXIFLOXACIN] here?
A: 10.5 ×10⁻⁶ cm/s

Q: And the Papp [2]?
A: tde

Q: What about the Papp A→B at 50 µM (P-glycoprotein [3]) of the same compound?
A: 4.35 ×10⁻⁶ cm/s

Q: And the Papp B→A at 50 µM (P-glycoprotein [4])?
A: 12.5 ×10⁻⁶ cm/s

Q: What about the Papp A→B at 50 µM (P-glycoprotein [5]) of the same compound?
A: 5.25 ×10⁻⁶ cm/s

Q: And the Papp [6]?
A: tde

Q: And the Papp at 350 ug/ml [7]?
A: 7.9 ×10⁻⁶ cm/s

Q: And the Papp B→A (P-glycoprotein [8])?
A: 7.9 ×10⁻⁶ cm/s

Q: And the Papp B→A (P-glycoprotein [9])?
A: 13.6 ×10⁻⁶ cm/s

Q: What about the Km (P-glycoprotein [10]) of the same compound?
A: 64.6 µg/mL

Q: What about the Papp B→A at 50 µM (P-glycoprotein [11]) of the same compound?
A: 11.9 ×10⁻⁶ cm/s

Q: What about the Cmax [12] of the same compound?
A: 5000 ng/mL

Q: What about the Ratio [13] of the same compound?
A: 2

Q: And the Papp [14]?
A: 13.6 ×10⁻⁶ cm/s

Q: What about the Papp A→B at 50 µM (P-glycoprotein [15]) of the same compound?
A: 4.08 ×10⁻⁶ cm/s
